From ChEMBL document CHEMBL1144636, “Quinazolinone fungal efflux pump inhibitors. Part 3: (N-methyl)piperazine variants and pharmacokinetic optimization” (Bioorg Med Chem Lett, 2007)

What was measured:
Candida albicans = test: In vitro potentiation of fluconazole antifungal activity in Candida albicans YEM15 assessed as 8 fold reduction in fluconazole MIC; type: functional
Nakaseomyces glabratus = test: In vitro potentiation of fluconazole antifungal activity in Candida glabrata YEM19 assessed as 8 fold reduction in fluconazole MIC; type: functional
Serum = test: Protein binding in Sprague-Dawley rat serum; type: ADME, cell-free; parameters: concentration or dose not given beside the values
[1] = Stability in Sprague-Dawley rat hepatocyte after 24 hrs; type: ADME, cell-based; settings: hepatocytes, read-out: Stability
[2] = Total clearance in Sprague-Dawley rat at 5 mg/kg, iv; type: ADME, organism-based; parameters: dose 5 mg/kg, route intravenous; settings: in vivo

SMILES | Activity (Candida albicans) [µg/mL] | Activity (Nakaseomyces glabratus) [µg/mL] | Activity (Serum) [%] | remaining at 24 h [1] [%] | clearance [2] [L/h/kg]
COc1ccc(N(C(=O)Nc2ccc(F)cc2)C(C)c2nc3ccccc3c(=O)n2N2CCN(C(N)=O)CC2)c(OC)c1 (configuration not stated) | 8 | 16 | – | – | –
COC(=O)N[C@H](C)C(=O)N1CCN(n2c(C(C)N(C(=O)Nc3ccc(F)cc3)c3ccc(OC)cc3OC)nc3ccccc3c2=O)CC1 (some centres not stated) | 4 | 0.5 | 82 | 7 | –
COc1ccc(N(C(=O)Nc2ccc(F)cc2)C(C)c2nc3ccccc3c(=O)n2N2CCN(C(=O)[C@H](C)N3CCCC3)CC2)c(OC)c1 (some centres not stated) | 8 | 0.25 | – | – | –
COC(=O)N[C@@H](C)C(=O)N1CCN(n2c(C(C)N(C(=O)Nc3ccc(F)cc3)c3ccc(OC)cc3OC)nc3ccccc3c2=O)CC1 (some centres not stated) | 2 | 0.25 | 82 | 39 | –
COc1ccc(N(C(=O)Nc2ccc(F)cc2)C(C)c2nc3ccccc3c(=O)n2N2CCN(C(=O)[C@H]3CCCN3)CC2)c(OC)c1 (some centres not stated) | >32 | 2 | – | – | –
CNCC(=O)N1CCN(n2c(C(C)N(C(=O)Nc3ccc(F)cc3)c3ccc(OC)cc3OC)nc3ccccc3c2=O)CC1 (configuration not stated) | >32 | 4 | – | – | –
COc1ccc(N(C(=O)Nc2ccc(F)cc2)C(C)c2nc3ccccc3c(=O)n2N2CCN(C(=O)N3CCCC3)CC2)c(OC)c1 (configuration not stated) | 0.0625 | <0.03 | – | 0 | –
COc1ccc(N(C(=O)Nc2ccc(F)cc2)C(C)c2nc3ccccc3c(=O)n2N2CCN(C=O)CC2)c(OC)c1 (configuration not stated) | 2 | 4 | – | – | –
COc1ccc(N(C(=O)Nc2ccc(F)cc2)C(C)c2nc3ccccc3c(=O)n2N2CCN(C(=O)[C@@H]3CCCN3)CC2)c(OC)c1 (some centres not stated) | >32 | 4 | 77 | 77 | –
COc1ccc(N(C(=O)Nc2ccc(F)cc2)C(C)c2nc3ccccc3c(=O)n2N2CCN(C(=O)C3CCCC3)CC2)c(OC)c1 (configuration not stated) | 0.25 | 0.125 | – | – | –
COc1ccc(N(C(=O)Nc2ccc(F)cc2)C(C)c2nc3ccccc3c(=O)n2N2CCN(C(=O)[C@@H]3CCCN3C3CC3)CC2)c(OC)c1 (some centres not stated) | 1 | 0.25 | – | – | –
COc1ccc(N(C(=O)Nc2ccc(F)cc2)C(C)c2nc3ccccc3c(=O)n2N2CCN(C[C@@H]3CCCN3)CC2)c(OC)c1 (some centres not stated) | 32 | 2 | – | – | –
COC(=O)N[C@@H](CO)C(=O)N1CCN(n2c(C(C)N(C(=O)Nc3ccc(F)cc3)c3ccc(OC)cc3OC)nc3ccccc3c2=O)CC1 (some centres not stated) | 32 | 8 | – | – | –
COc1ccc(N(C(=O)Nc2ccc(F)cc2)C(C)c2nc3ccccc3c(=O)n2N2CCN(C(=O)CN3CCCC3)CC2)c(OC)c1 (configuration not stated) | 4 | 1 | – | – | –
COC(=O)N[C@@H](C)C(=O)N1CCN(n2c([C@H](C)N(C(=O)Nc3ccc(F)cc3)c3ccc(OC)cc3OC)nc3cc(F)ccc3c2=O)CC1 | 0.5 | 0.0625 | 87 | – | 7.5
COC(=O)N[C@@H]1CCN(C(=O)N2CCN(n3c(C(C)N(C(=O)Nc4ccc(F)cc4)c4ccc(OC)cc4OC)nc4ccccc4c3=O)CC2)C1 (some centres not stated) | 0.25 | 0.5 | – | 4 | –

SMILES | Activity (Candida albicans) [µg/mL] | Activity (Nakaseomyces glabratus) [µg/mL] | Activity (Serum) [%] | remaining at 24 h [1] [%] | clearance [2] [L/h/kg]
COC(=O)N[C@H](C(=O)N1CCN(n2c(C(C)N(C(=O)Nc3ccc(F)cc3)c3ccc(OC)cc3OC)nc3ccccc3c2=O)CC1)[C@H](C)O (some centres not stated) | 2 | 2 | – | – | –
COc1ccc(N(C(=O)Nc2cccc(Cl)c2)C(C)c2nc3ccccc3c(=O)n2N2CCN(C)CC2)c(OC)c1 (configuration not stated) | 1 | 4 | 98 | – | 5
COc1ccc(N(C(=O)Nc2ccc(F)cc2)C(C)c2nc3ccccc3c(=O)n2N2CCCCC2)c(OC)c1 (configuration not stated) | >32 | >32 | – | – | –
COc1ccc(N(C(=O)Nc2ccc(F)cc2)C(C)c2nc3ccccc3c(=O)n2N2CCN(C(=O)C[C@@H]3CCCN3)CC2)c(OC)c1 (some centres not stated) | >32 | 0.5 | – | – | –
CCNC(=O)N1CCN(n2c(C(C)N(C(=O)Nc3ccc(F)cc3)c3ccc(OC)cc3OC)nc3ccccc3c2=O)CC1 (configuration not stated) | 1 | 1 | – | – | –
COC(=O)NCC(=O)N1CCN(n2c(C(C)N(C(=O)Nc3ccc(F)cc3)c3ccc(OC)cc3OC)nc3ccccc3c2=O)CC1 (configuration not stated) | >32 | 2 | – | – | –
COc1ccc(N(C(=O)Nc2ccc(F)cc2)C(C)c2nc3ccccc3c(=O)n2N2CCN(C(=O)[C@@H]3CCCN3C)CC2)c(OC)c1 (some centres not stated) | 32 | 2 | – | – | –
COC(=O)N[C@H](C(=O)N1CCN(n2c(C(C)N(C(=O)Nc3ccc(F)cc3)c3ccc(OC)cc3OC)nc3ccccc3c2=O)CC1)C(C)C (some centres not stated) | 1 | 2 | – | – | –
COc1ccc(N(C(=O)Nc2ccc(F)cc2)C(C)c2nc3ccccc3c(=O)n2N2CCN(C(=O)[C@H](C)N)CC2)c(OC)c1 (some centres not stated) | >32 | 4 | – | – | –
CCOC(=O)N1CCN(n2c(C(C)N(C(=O)Nc3ccc(F)cc3)c3ccc(OC)cc3OC)nc3ccccc3c2=O)CC1 (configuration not stated) | 0.25 | 0.5 | – | – | –
COc1ccc(N(C(=O)Nc2ccc(F)cc2)C(C)c2nc3ccccc3c(=O)n2N2CCN(C(=O)C3CCCO3)CC2)c(OC)c1 (configuration not stated) | 0.5 | 0.125 | – | – | –
COc1ccc(N(C(=O)Nc2ccc(F)cc2)C(C)c2nc3ccccc3c(=O)n2N2CCNCC2)c(OC)c1 (configuration not stated) | >32 | 32 | – | – | –
COC(=O)N[C@H]1CCN(C(=O)N2CCN(n3c(C(C)N(C(=O)Nc4ccc(F)cc4)c4ccc(OC)cc4OC)nc4ccccc4c3=O)CC2)C1 (some centres not stated) | 4 | 0.25 | – | 23 | –
COC(=O)N(C)[C@@H](C)C(=O)N1CCN(n2c(C(C)N(C(=O)Nc3ccc(F)cc3)c3ccc(OC)cc3OC)nc3ccccc3c2=O)CC1 (some centres not stated) | 0.5 | 0.5 | – | – | –
COc1ccc(N(C(=O)Nc2ccc(F)cc2)C(C)c2nc3ccccc3c(=O)n2N2CCN(C)CC2)c(OC)c1 (configuration not stated) | 4 | 4 | 74 | 18 | –
